Numbering of substitutions follows the chain as printed. Read-outs that look alike come from different tables or passages of the source.

Common to all, as to format: cell-based
For assay [1], the target named is T1, wild-type Androgen Receptor (AR-wt) (Homo sapiens, UniProt P10275).
T1 construct: expressed in transfected cells; host or cells: LNCaP (LNCaP AR (cs))
T1 sequence (P10275 1-920): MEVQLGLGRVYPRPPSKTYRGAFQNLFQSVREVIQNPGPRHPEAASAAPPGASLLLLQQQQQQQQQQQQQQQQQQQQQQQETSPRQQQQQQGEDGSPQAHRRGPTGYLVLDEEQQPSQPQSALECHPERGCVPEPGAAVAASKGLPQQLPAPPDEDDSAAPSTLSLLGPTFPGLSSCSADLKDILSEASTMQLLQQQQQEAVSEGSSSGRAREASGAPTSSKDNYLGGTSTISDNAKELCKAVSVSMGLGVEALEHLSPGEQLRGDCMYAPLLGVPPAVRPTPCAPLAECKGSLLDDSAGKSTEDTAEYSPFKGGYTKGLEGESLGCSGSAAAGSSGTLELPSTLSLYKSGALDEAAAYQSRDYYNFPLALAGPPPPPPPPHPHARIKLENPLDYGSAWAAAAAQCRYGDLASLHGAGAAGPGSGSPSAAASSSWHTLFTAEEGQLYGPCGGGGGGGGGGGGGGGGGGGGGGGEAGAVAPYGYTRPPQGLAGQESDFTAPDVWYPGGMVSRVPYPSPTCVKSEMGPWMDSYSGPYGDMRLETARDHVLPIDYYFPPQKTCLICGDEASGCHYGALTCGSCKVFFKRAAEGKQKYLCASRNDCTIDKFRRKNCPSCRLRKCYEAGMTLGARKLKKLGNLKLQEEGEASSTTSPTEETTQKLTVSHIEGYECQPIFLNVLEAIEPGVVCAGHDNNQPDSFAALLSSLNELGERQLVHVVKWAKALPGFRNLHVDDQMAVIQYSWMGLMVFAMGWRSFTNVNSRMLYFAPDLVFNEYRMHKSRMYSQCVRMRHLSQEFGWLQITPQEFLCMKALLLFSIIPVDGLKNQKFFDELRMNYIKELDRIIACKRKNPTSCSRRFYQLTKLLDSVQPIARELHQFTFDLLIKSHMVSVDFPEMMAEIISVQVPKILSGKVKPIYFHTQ
Description: LNCaP-AR-wt ANT reporter assay (ARE firefly luciferase, antagonist mode). The note with it: for IC50: antagonist mode, 400 pM R-1881 challenge, −Log10(IC50 [Molar]), read-out: LNCaP-AR-wt ANT pIC50 (converted); for Emax: read-out: LNCaP-AR-wt ANT MAX % Inh. An outline of the steps:
(§1)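 LNCaP stable pooled lines expressing ARE-firefly luciferase, in charcoal-stripped serum medium, were exposed to compounds; antagonist mode used agonist at 400 pM (WT) or 600 pM (F876L).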
Background: A reporter such as luciferase makes a cellular process visible.

Assay [2] concerns the target T1, wild-type Androgen Receptor (AR-wt). Description: LNCaP-AR-wt AG reporter assay (ARE firefly luciferase, agonist mode). The note with it: for Emax: read-out: LNCaP-AR-wt AG MAX % Stim. An outline of the steps:
(§2)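 Puromycin-selected pooled LNCaP populations expressing AR-wt or AR-F876L are seeded in CSS medium and treated with compound for 20-24 h at 37 °C. For antagonist testing, agonist is added at 400 pM (WT) or 600 pM (F876L). Potency values derive from least-squares fitting of luminescence RLU.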

Assay [3] addresses T2, F876L mutant Androgen Receptor (AR-F876L) (Homo sapiens, UniProt P10275, F877L).
T2 construct: expressed in transfected cells; host or cells: LNCaP (LNCaP F876L)
T2 sequence (P10275 1-920 F877L): T1 sequence (P10275 1-920) with F877L
Nature of the assay: LNCaP-AR-F876L ANT reporter assay (ARE firefly luciferase, antagonist mode). The note with it: for Emax: read-out: LNCaP-AR-F876L ANT MAX % Inh; for IC50: read-out: LNCaP-AR-F876L ANT pIC50 (converted). The method, boiled down:
as §1

Assay [4] deals with T2, F876L mutant Androgen Receptor (AR-F876L). Nature of the assay: LNCaP-AR-F876L AG reporter assay (ARE firefly luciferase, agonist mode). The note with it: for Emax: read-out: LNCaP-AR-F876L AG MAX % Stim. The method, boiled down:
as §2

Setting [5] is: maximum % inhibition of R1881 control response over tested concentration range.
[6] abbreviates: agonist mode, −Log10(EC50 [Molar]), read-out: LNCaP-AR-wt AG pEC50 (converted).
Where [7] appears, read: maximum % stimulation (agonist response) over tested concentration range.
Setting [8] is: agonist mode, −Log10(EC50 [Molar]), read-out: LNCaP-AR-F876L AG pEC50 (converted).

Take `N#Cc1ncc(N2C(=O)C3(CCC3)N(c3ccc(C(=O)NCc4cnccn4)c(F)c3)C2=S)cc1C(F)(F)F` [Cpd 54, 4-[6-[6-cyano-5-(trifluoromethyl)-3-pyridyl]-5-oxo-7-thioxo-6,8-diazaspiro[3.4]octan-8-yl]-2-fluoro-N-(pyrazin-2-ylmethyl)benzamide]: the IC50 was 0.38 µM in assay [1] and 0.219 µM in assay [3]. Also, the Emax in assay [1] (setting [5]) was 101%; in assay [2] (setting [7]), 0.1%; in assay [3] (setting [5]) it was 98.9%; in assay [4] (setting [7]), 0.5%. For the same compound, the EC50 in assay [2] (setting [6]) and in assay [4] (setting [8]) was more than 15.1 µM each time.
Consider `N#Cc1ncc(N2C(=O)C3(CCC3)N(c3ccc(C4CCOCC4)cc3)C2=S)cc1C(F)(F)F` [Cpd 89, 5-[5-oxo-8-(4-tetrahydropyran-4-ylphenyl)-7-thioxo-6,8-diazaspiro[3.4]octan-6-yl]-3-(trifluoromethyl)pyridine-2-carbonitrile], for which the IC50 is 0.631 µM in assay [1] and 0.437 µM in assay [3]. Also, the Emax in assay [1] (setting [5]) was found to be 101%; in assay [2] (setting [7]), 0.3%; in assay [3] (setting [5]) it was 96.2%; in assay [4] (setting [7]) it was 1.4%. The EC50 in assay [2] (setting [6]) and in assay [4] (setting [8]) was more than 15.1 µM throughout.
With `N#Cc1ncc(N2C(=O)C3(CCC3)N(c3ccc(C(=O)NCc4cccs4)c(F)c3)C2=S)cc1C(F)(F)F` [Cpd 59, 4-[6-[6-cyano-5-(trifluoromethyl)-3-pyridyl]-5-oxo-7-thioxo-6,8-diazaspiro[3.4]octan-8-yl]-2-fluoro-N-(2-thienylmethyl)benzamide], the results for the IC50 in assay [1] and in assay [3] were 1.29 µM and 0.676 µM, respectively. In addition, the Emax in assay [1] worked out at 102%; in assay [2] it was 1.5%; in assay [3], 100%; in assay [4] it was 0.7%. Further, the EC50 in assay [2] and in assay [4] was more than 15.1 µM throughout.
For the compound `Cc1cc(N2C(=O)C3(CCC3)N(c3ccc(OC4CCS(=O)(=O)CC4)cc3)C2=S)cnc1C#N` [Cpd 6, 5-[8-[4-(1,1-dioxothian-4-yl)oxyphenyl]-5-oxo-7-thioxo-6,8-diazaspiro[3.4]octan-6-yl]-3-methyl-pyridine-2-carbonitrile], the IC50 in assay [1] was 0.646 µM; in assay [3] it was 0.178 µM. For the same compound, the Emax in assay [1] (setting [5]) turned out to be 100%; in assay [2] (setting [7]), 0.4%; in assay [3] (setting [5]) it was 99.5%; in assay [4] (setting [7]) it was 0%. Further, the EC50 in assay [2] (setting [6]) and in assay [4] (setting [8]) was more than 15.1 µM throughout.
In the case of `Cc1cc(N2C(=O)C3(CCC3)N(c3ccc(C(=O)Nc4cccc(Cl)c4)c(F)c3)C2=S)cnc1C#N` [Cpd 78, N-(3-chlorophenyl)-4-[6-(6-cyano-5-methyl-3-pyridyl)-5-oxo-7-thioxo-6,8-diazaspiro[3.4]octan-8-yl]-2-fluoro-benzamide], the IC50 in assay [1] is 1.32 µM; in assay [3], 1.05 µM. The Emax in assay [1] (setting [5]) was 96.5%; in assay [2] (setting [7]) it was 0.7%; in assay [3] (setting [5]), 95.9%; in assay [4] (setting [7]), 1%. In addition, the EC50 in assay [2] (setting [6]) and in assay [4] (setting [8]) was more than 15.1 µM in each case.
Turning to `Cc1cc(N2C(=O)C3(CCC3)N(c3ccc(C(=O)NC4CCOCC4)c(F)c3)C2=S)cnc1C#N` [Cpd 2, 4-[6-(6-cyano-5-methyl-3-pyridyl)-5-oxo-7-thioxo-6,8-diazaspiro[3.4]octan-8-yl]-2-fluoro-N-tetrahydropyran-4-yl-benzamide], the IC50 in assay [1] is 2.24 µM; in assay [3], 0.288 µM. Moreover, the Emax in assay [1] was 98.1%; in assay [2], 0.8%; in assay [3] it was 99.3%; in assay [4] it was -0.4%. In addition, the EC50 in assay [2] and in assay [4] was more than 15.1 µM throughout.
Regarding `N#Cc1ncc(N2C(=O)C3(CCC3)N(c3ccc(C(=O)NCCc4ccncc4)c(F)c3)C2=S)cc1C(F)(F)F` [Cpd 14, 4-[6-[6-cyano-5-(trifluoromethyl)-3-pyridyl]-5-oxo-7-thioxo-6,8-diazaspiro[3.4]octan-8-yl]-2-fluoro-N-[2-(4-pyridyl)ethyl]benzamide], the results for the IC50 in assay [1] and in assay [3] were 0.0871 µM and 0.112 µM, respectively. Further, the Emax in assay [1] (setting [5]) was 102%; in assay [2] (setting [7]), 0%; in assay [3] (setting [5]), 99.7%; in assay [4] (setting [7]), -0.1%. The EC50 in assay [2] (setting [6]) and in assay [4] (setting [8]) was more than 15.1 µM throughout.
As for `CC(C)NC(=O)c1ccc(N2C(=S)N(c3cnc(C#N)c(C(F)(F)F)c3)C(=O)C23CCC3)cc1F` [Cpd 23, 4-[6-[6-cyano-5-(trifluoromethyl)-3-pyridyl]-5-oxo-7-thioxo-6,8-diazaspiro[3.4]octan-8-yl]-2-fluoro-N-isopropyl-benzamide], the IC50 in assay [1] is 1.26 µM; in assay [3], 0.347 µM. The Emax in assay [1] (setting [5]) was 99.4%; in assay [2] (setting [7]), 0.9%; in assay [3] (setting [5]), 99.6%; in assay [4] (setting [7]) it was 0%. In addition, the EC50 in assay [2] (setting [6]) and in assay [4] (setting [8]) was more than 15.1 µM in each case.
On to `Cc1ccc(N2C(=S)N(c3cnc(C#N)c(C)c3)C(=O)C23CCC3)cc1` [Cpd 29, 3-methyl-5-[5-oxo-8-(p-tolyl)-7-thioxo-6,8-diazaspiro[3.4]octan-6-yl]pyridine-2-carbonitrile], for which the IC50 in assay [1] is 0.389 µM; in assay [3] it was 0.1 µM. In addition, the Emax in assay [1] (setting [5]) is 102%; in assay [2], 0.7%; in assay [3] (setting [5]), 101%; in assay [4], 0.3%. In addition, the EC50 in assay [2] (setting [6]) and in assay [4] (setting [8]) was more than 15.1 µM throughout.
Consider `N#Cc1ncc(N2C(=O)C3(CCC3)N(c3ccc(C(=O)NCCCc4ccccc4)c(F)c3)C2=S)cc1C(F)(F)F` [Cpd 57, 4-[6-[6-cyano-5-(trifluoromethyl)-3-pyridyl]-5-oxo-7-thioxo-6,8-diazaspiro[3.4]octan-8-yl]-2-fluoro-N-(3-phenylpropyl)benzamide], for which the IC50 in assay [1] is 0.324 µM; in assay [3], 0.479 µM. The Emax in assay [1] came out at 99%; in assay [2], 0%; in assay [3] it was 95.5%; in assay [4] it was 0.5%. Also, the EC50 in assay [2] and in assay [4] was more than 15.1 µM in each case.

The record behind these values is US20180008587A1, “THIOHYDANTOIN ANDROGEN RECEPTOR ANTAGONISTS FOR THE TREATMENT OF CANCER” (Jaressen Pharmaceutica NV, priority 2016, published 2018).
